A short description of data set [1]: Maximum tolerated dose, full dose range to the point of toxicity. The note with it: ip, mice. The procedure:
Br. J. Cancer (1993), 67, 441 446 t? […] Bibby Clinical Oncology Unit, University of Bradford, West Yorkshire, BD7 JDP, UK. […] In vivo anti-tumour activity was examined against three transplantable adenocarcinomas of the mouse colon and in vivo bone marrow toxicity was assessed using a spleen colony forming unit assay. The pharmacokinetic behaviour of the drug in vivo and drug stability in vitro was analysed by gas chromatography with electron capture detection. […] Clinical responses to cytotoxic agents have been largely restricted to the haematological malignancies while the majority of human solid tumours have remained refractory to chemotherapy (Marsoni et al., 1987). […] However, their clinical usefulness has been limited by non-selective host toxicity, particularly myelosuppres- sion. The chloroethylnitrosoureas decompose spontaneously in aqueous solution to generate reactive intermediates that are capable of alkylating and carbamoylating nucleophilic targets (Cheng et al., 1972). Alkylation reactions consist of chloroethylations and hydroxyethylations of DNA (Tong et al., 1982). Chloroethylation of 06-guanine with subsequent cross-link formation is considered to be the most important cytotoxic reaction (Lown et al., 1978) while hydroxyethyla- tion reactions are thought to be responsible for their mutagenic and carcinogenic effects (Pelfrene et al., 1976; Swenson et al., 1979). […] The assessment of stem cell survival has been recommended to study irreversible cytotoxic bone marrow injury (Schofield, 1986) and this can be performed readily in mice using a spleen colony forming unit assay. […] In vitro activity was assessed against a panel of established murine and human tumour cell lines while in vivo anti-tumour responses were evaluated against an ascitic tumour, MAC 15A, and two solid subcutaneous (sc) tumours, MAC 13 and MAC 26. […] Chemosensitivity testing In vitro chemosensitivity was assessed using a modified micro-tetrazolium (MTT) assay (Twenty- man & Luscombe, 1987).

The test system of the next data set is MAC 15A ascites tumour. Kind of data set: Anti-tumour activity against MAC 15A (median survival time). It counts as in vivo, NMRI mice. The note with it: 30 mg kg-1 ip. Here is the method:
(§1) Br. J. Cancer (1993), 67, 441 446 t? […] Bibby Clinical Oncology Unit, University of Bradford, West Yorkshire, BD7 JDP, UK. […] In vivo anti-tumour activity was examined against three transplantable adenocarcinomas of the mouse colon and in vivo bone marrow toxicity was assessed using a spleen colony forming unit assay. The pharmacokinetic behaviour of the drug in vivo and drug stability in vitro was analysed by gas chromatography with electron capture detection. […] Clinical responses to cytotoxic agents have been largely restricted to the haematological malignancies while the majority of human solid tumours have remained refractory to chemotherapy (Marsoni et al., 1987). […] However, their clinical usefulness has been limited by non-selective host toxicity, particularly myelosuppres- sion. The chloroethylnitrosoureas decompose spontaneously in aqueous solution to generate reactive intermediates that are capable of alkylating and carbamoylating nucleophilic targets (Cheng et al., 1972). Alkylation reactions consist of chloroethylations and hydroxyethylations of DNA (Tong et al., 1982). Chloroethylation of 06-guanine with subsequent cross-link formation is considered to be the most important cytotoxic reaction (Lown et al., 1978) while hydroxyethyla- tion reactions are thought to be responsible for their mutagenic and carcinogenic effects (Pelfrene et al., 1976; Swenson et al., 1979). […] In the search for other types of compound that would chloroethylate DNA, a series of 2-haloethylsulphonates was synthesised (Shealy et al., 1983). […] Recently, the NCI has introduced a new disease-orientated screening programme based on the assessment of the in vitro cytotoxicity of a panel of cell lines representing the common clinical forms of human cancers using a colorimetric assay (Boyd, 1989). […] One reason for this discrepancy is that the in vitro tests ignore the potential role played by the pharmacokinetic behaviour and bioavailability of a drug in determining tumour responses in vivo. […] It has been used extensively as part of the pre-clinical evaluation of new anti-cancer agents within the Screening and Pharmacology Group of the EORTC (Bibby et al., 1988b). The feasibility of performing minimal toxicity studies in conjunction with anti-tumour studies has been described (Bibby et al., 1988b). […] Correspondence: A.M. Matthew. Received 6 December 1991; and in revised form 13 October 1992. Br. J. Cancer (1993), 67, 441-446 '?" Macmillan Press Ltd., 1993 442 A.M. MATIHEW et al. ethylating agents with improved therapeutic indices. The assessment of stem cell survival has been recommended to study irreversible cytotoxic bone marrow injury (Schofield, 1986) and this can be performed readily in mice using a spleen colony forming unit assay. […] In vitro activity was assessed against a panel of established murine and human tumour cell lines while in vivo anti-tumour responses were evaluated against an ascitic tumour, MAC 15A, and two solid subcutaneous (sc) tumours, MAC 13 and MAC 26. MAC 13 is relatively nitrosourea-sensitive due to a low level of the repair enzyme 06-alkylguanine-DNA alkyltransferase while MAC 26 is relatively nitrosourea-resistant due to a high repair enzyme level (Lunn et al., 1989). In vivo bone marrow toxicity and pharmacokinetic studies and in vitro drug stability studies were performed in conjunction with the anti-tumour studies. […] Chlorozotocin was dissolved in 10% dimethylsulphoxide (DMSO)/arachis oil. Drug solutions were prepared at an appropriate concentration for the desired in vivo dose to be administered in 0.1 ml per 10 g body weight by intra- peritoneal (ip) or intravenous (iv) injection and for the desired final concentration in vitro to be achieved upon a 1 in 10 dilution. […] Chemosensitivity testing In vitro chemosensitivity was assessed using a modified micro-tetrazolium (MTT) assay (Twenty- man & Luscombe, 1987).

For a further data set, the system named is bone marrow. The following applies: 24 h. The procedure:
as §1

The test system of another data set is MAC 26 tumours. The following applies: for Survivors: MAC 26 bearers. Here is the method: as §1
In a further data set the test system is MAC 13 tumours. Kind of data set: Anti-tumour activity against MAC 13 (tumour weight). It counts as in vivo, NMRI mice. The following applies: 30 mg kg-1 ip. Here is the method:
as §1

Where two headings read alike, the source gives them in different places.

For `CN(C)S(=O)(=O)CCNC(=O)N(CCCl)N=O` [TCNU, 1-(2-chloroethyl)-3-[2-(dimethylaminosulphonyl)ethyl]-I -nitro-sourea], the Maximum tolerated dose in data set [1] came to 30 mg kg-'. Also, the T/C% in the data set on MAC 15A ascites tumour came out at 200%. Also, the values for the Survival fraction in the data set with bone marrow (5 mg kg-1 ip), in the data set on bone marrow (10 mg kg-1 ip) and in the data set with bone marrow (30 mg kg-1 ip) were 0.61, 0.20 and 0, respectively. Moreover, the No. colonies observed in the data set on bone marrow (30 mg kg-1 ip, mean, SD, n = 6) turned out to be 0. Further, the Tumour growth delay in the data set on MAC 26 tumours (MAC 26, 30 mg kg-1 ip) stood at 11.6 days. The Survivors in the data set on MAC 26 tumours (30 mg kg-1 ip) is 10/10; with MAC 26 tumours (50 mg kg-1 ip) it was 0/5. The “% Tumour weight inhibition” value in the data set on MAC 13 tumours came out at 91.3%.

The values above are taken from paper PMC1968247 (British Journal of Cancer, 1993).
